{"source": "patent US10800806B2", "about": "“Sterol derivatives and use thereof for treating diseases involving transformed astrocyte cells or for treating malignant haemopathies” (BETA INNOV, priority 2012, dated 2020)", "key": {"[1]": {"system": "liver cancer cells (ATCC-HB-8065)", "assay": "Activity in vitro on liver cancer cells", "assay_type": "cell-based, human", "details": "30 μM, ethanolic form", "method": "They were obtained from ATCC (ref. ATCC-HB-8065). The culture medium consists of MEM (Gibco, USA; ref. 51200) and 10% (v/v) FCS. The doubling time is 60 h. • Prostate cancer cells\n(§1) The cancer cells used are from liver (ref. ATCC-HB-8065), prostate (ref. ATCC-HTB-81), breast (ref. ATCC-HTB-19) cancer cells, and from colon cancer cells (ECACC-HT29/219) of human origin, mentioned above."}, "[2]": {"system": "breast cancer cells (ATCC-HTB-19)", "assay": "Activity in vitro on breast cancer cells", "assay_type": "cell-based, human", "details": "30 μM, ethanolic form", "method": "They were obtained from ATCC (ref. ATCC-HTB-19). The culture medium is the same as that used for the liver cancer lines. The doubling time is 20 h. • Colon carcinoma (line HT29/219)\nas §1"}, "[3]": {"system": "colon cancer cells (ECACC-HT29/219)", "assay": "Activity in vitro on colon cancer cells", "assay_type": "cell-based, human", "details": "15 μM, improved liposomal form", "text": "They were obtained from the ECACC collection (Ref. ECACC-85061109). The culture conditions are based on the recommendations in the Sigma-Aldrich information leaflet. • Neuroblastoma (line SH-SY5Y)\nas §1"}, "[4]": {"system": "white blood cells from a patient suffering from CMML", "assay": "Activity in vitro on Chronic Myelomonocytic Leukaemia (CMML) cells", "assay_type": "cell-based, human", "details": "10 μM once, improved liposomal form, 72 h of treatment", "method": "The cells purified from blood samples of patients suffering from Chronic Myelomonocytic Leukaemia (CMML) were obtained by the Clinical Haematology Centre and the Biotherapy Centre of the Saint Eloi Hospital (CHU de Montpellier). Culture was carried out by the technique of seeding on a feed layer. […] The CMML cells were cultured on cell lines originating from human embryo spinal cord (17).\nThe white blood cells are isolated from a blood sample collected from a patient suffering from CMML. The cells are treated once with 10 μM of molecule 2.b in improved liposomal form 24 hours after culturing by seeding on a feed layer (17).\nThe controls are cells treated with empty liposomes: the upper left hand photograph marked with the letter A was taken after 48 h of treatment and the lower left hand photograph with the letter B after 72 h of treatment.\nFor the cells treated with 2.b, the upper right hand photograph marked with the letter C was taken after 48 h of treatment and the lower right hand photograph with the letter D after 72 h of treatment."}, "[5]": {"system": "LDH from Lactobacillus leichmannii (LL)", "assay": "Inhibition of LDH activity, in gel assay after IEF", "assay_type": "biochemical", "details": "ethanolic form, 36 mM", "method": "The measurements of the activity of LDH and of its inhibition by a routine inhibitor, oxamate (23), were validated by the spectrometric method (24) using the purified LDH of Lactobacillus leichmannii (LL) (Sigma) as standard.\n(§2) Next, the LDH activities and their inhibition were detected by the “in gel assay” technique (25). The source of activity used was LDH LL and LDH, partially purified, from human GBM lines U87-MG (LDH GBM). “In gel assay” detection was carried out after isoelectric focusing (IEF) on electrophoresis gels of the LDH LL and LDH GBM samples.\nThe mini-gels of 7.5 (T %) and of 2.6 (C %) are poured into Pi with the Ampholines (BioRad) making it possible to form a pH gradient in the range from 7 to 5 after pre-focusing in a cold chamber. The containers used are of the mini-protean 3 type (BioRad). […]\n(§3) The LDH activity is detected by the lactate/NAD/MTT/phenazine methosulphate system (formation of a precipitate of the formazan type in the IEF gel); this system is described in reference (25). […]\n(§4) The activity of LDH is detected by the “in gel assay” technique on IEF electrophoresis gels, which were described in the section “A/ PROTOCOLS 6)” (25); the precision of this technique is 0.2 unit of pH. The activity of LDH is detected by a dark blue precipitate, of the formazan type, the site where LDH activity is located."}, "[6]": {"system": "partially purified LDH from human GBM lines (U87-MG)", "assay": "Inhibition of LDH activity, in gel assay after IEF", "assay_type": "biochemical", "details": "ethanolic form, 36 mM", "method": "as §2\nThe cells collected in phosphate buffer (50 mM, Ph 7.2.Pi) undergo several freeze (−20° C.)/thaw cycles and the cellular material is homogenized. After centrifugation at 10,000 g for 45 min at 4° C., the supernatant is collected and aliquots containing 10% glycerol (v:v) are frozen at −80° C. At the desired time, the aliquots, after thawing, are chromatographed on a filtration column (Biogel P-60, BioRad) prepared in Pi. The volume of gel is 9 ml and the inside diameter of the column is 0.4 cm. Elution is carried out at atmospheric pressure. […]\nas §3, §4"}}, "data": [{"smiles": "CC(=O)OC1C=C2CC(OC(=O)C3COC(C)(C)O3)CCC2(C)C2CCC3(C)C(C(C)CCCC(C)C)CCC3C12", "note": "(stereo not drawn) [Molecule 2.b, 7-acetoxy-10,13-dimethyl-17-(6-methylheptan-2-yl)-2,3,4,7,8,9,10,11,12,13,14,15,16,17-tetradecahydro-1H-cyclopenta[a]phenanthren-3-yl 2,2-dimethyl-1,3-dioxolane-4-carboxylate]", "values": [{"measurement": "effect on cellular division and respiration", "setting": "[1]", "value": "no effect"}, {"measurement": "effect on cellular division and respiration", "setting": "[2]", "value": "no effect"}, {"measurement": "toxicity to colon cancer cells", "setting": "[3]", "value": "not toxic"}, {"measurement": "effect on cell multiplication relative to the control", "setting": "[4]", "value": "Cell multiplication is slowed considerably"}, {"measurement": "inhibition of the enzymatic activity of LDH LL", "setting": "[5]", "value": "almost completely"}, {"measurement": "inhibition of the enzymatic activity of LDH GBM", "setting": "[6]", "value": "partially"}]}]}
